One test deals with calpain. Kind of test: Combined use with calpain inhibitor in rat NMDA model (Compound 19 as probe). The class given is in vivo. The procedure: (§1) Carboxymethylcellulose sodium was dissolved in distilled water to prepare a 0.5% (w/v) CMC solution. An inhibitor-containing CMC solution was prepared by suspending SNJ-1945 in the 0.5% (w/v) CMC solution so that its concentration became 2.5% (w/v). Rats were each subjected to general anesthesia with isoflurane, and NMDA (10 mM, 2 μL) was administered into an eye of the rat. 2 Hours after the administration of NMDA, the inhibitor-containing CMC solution was intraperitoneally administered to the rat so that the dose of SNJ-1945 became 100 mg/kg body weight. 4 Hours after the administration of the inhibitor (6 hours after the administration of NMDA), the rat was anesthetized with isoflurane again, and Compound 19 (15 μM, 4 μL) was administered into the eye. Images of an ocular fundus were taken with F-10 20 minutes to 30 minutes after the administration of Compound 19. In a control group (N=8), the same operations as those in an SNJ-1945-administered group (N=8) except the following were performed: the 0.5% (w/v) CMC solution was administered instead of the inhibitor-containing CMC solution.
as §1, with “orally” for “intraperitoneally”, “(N=7),” for “(N=8),”
Carboxymethylcellulose sodium was dissolved in distilled water to prepare a 0.5% (w/v) CMC solution. An inhibitor-containing CMC solution was prepared by suspending SNJ-1945 in the 0.5% (w/v) CMC solution so that its concentration became 2.5% (w/v). The inhibitor-containing CMC solution was intraperitoneally administered to each of rats so that the dose of SNJ-1945 became 100 mg/kg body weight. 2 Hours after the intraperitoneal administration, the rat was subjected to general anesthesia with isoflurane, and NMDA (10 mM, 2 μL) was administered into an eye thereof. […]

The test system of a further test is SH-SY5Y cells. Kind of test: Combined use with calpain inhibitor in live cell imaging. The class given is cell-based. The note with it: inhibitor 10 μM, 5 μM Compound 19, SH-SY5Y cells; FIG. 30. The procedure: Whether or not the improvement in enzymatic reactivity between the compound of the present invention and a calpain confirmed by the above-mentioned experiment remained the same even in a cell was verified. Calpain activity imaging in SH-SY5Y cells was performed on each of Compounds 16 and 19. Specifically, the SH-SY5Y cells (American Type Culture Collection, VA, USA) were cultured in a mixed medium of Dulbecco's modified eagle medium and Ham's F-12 medium (DMEM/F-12; Thermo Fisher Scientific, Inc.) (containing 10% fetal bovine serum (FBS; Thermo Fisher Scientific, Inc., MA, USA) and 100 U/mL penicillin-100 μg/mL streptomycin (PS; Thermo Fisher Scientific, Inc.)) under the conditions of 37° C. and 5% CO2-95% air. 6×10^4 to 8×10^4 Cells/well of the cells were seeded in a multiwell plate (μ-Plate 96 Well; ibidi, Grafelfing, Germany) coated with poly-D-lysine (Thermo Fisher Scientific, Inc.) and laminin (BD Biosciences, CA, USA), and were preincubated in a culture solution. Immediately after the removal of the culture solution in the wells, 200 μL of an assay solution (a culture solution containing a 5 μM probe) was added thereto, and the cells were incubated under the conditions of 37° C. and 5% CO2-95% air. 10 Minutes after that, a bright field image and a fluorescence image were taken with a confocal microscope (LSM 710, Carl Zeiss AG, Oberkochen, Germany). […]

The results in this text go back to patent publication US20240279710A1, “FLUORESCENT PROBES” (TOHOKU TECHNO ARCH CO., LTD., priority 2021, published 2024).

Turning to `COCCOCCOC(=O)N[C@@H](CC(C)C)C(=O)N[C@@H](Cc1ccccc1)C(=O)C(=O)NC1CC1` [SNJ-1945], the “number of HMRG-positive nerve cells compared to control group” value was “significantly reduced” in the test on calpain (100 mg/kg intraperitoneally 2 hours after NMDA, Compound 19 (15 μM, 4 μL) 4 hours later, FIG. 32); “significantly reduced” in the test with calpain (100 mg/kg intraperitoneally 2 hours before NMDA, Compound 19 (15 μM, 4 μL) 6 hours after NMDA, FIG. 34); “significantly reduced” in the test on calpain (100 mg/kg orally 2 hours after NMDA, Compound 19 (15 μM, 4 μL) 4 hours later, FIG. 33). Moreover, the “number of HMRG-positive nerve cells compared to group administered any other calpain inhibitor (C2I, MDL 28,170, PD-151746)” value with calpain (orally as in Example 16, FIG. 35) is recorded as “significantly reduced”. Moreover, in the test with SH-SY5Y cells, the “intracellular fluorescence intensity (Compound 19 probe) with vs without inhibitor” value was “attenuates”.
